Results on 1 compound are retold here after patent publication US20260209177A1, “1-DEOXYNOJIRIMYCIN DERIVATIVE AND USE THEREOF” (ZHEJIANG UNIVERSITY, priority 2022, published 2026).

Assay [1] has as its system C57BL/6J mice with Ang II-induced myocardial hypertrophy. In words: Cardiac ultrasonography of mice with Ang II-induced myocardial hypertrophy. It counts as in vivo, mouse. The following applies: 10 mg/kg/d intraperitoneal, 4 weeks, FIG. 22. As for the experimental part: (§1) Model construction was performed by adopting C57BL/6J wild-type mice with subcutaneous implantation and perfusion of angiotensin II (AngII)/normal saline (Saline) through an Alzet Osmotic Pump 2004. Relevant statistical results were obtained after continuous feeding, modeling and administration for 4 weeks.
Model construction: Weighing and anesthetization were performed, and skin preparation and disinfection were performed in surgical areas. A 1 cm incision above a scapula of a front leg was made by using surgical scissors, wherein the incision was perpendicular to a tail part. The skin was cut carefully without damaging underlying tissues, a subcutaneous tunnel was made under the skin by using hemostatic forceps, the pump with a regulator head was completely pushed into a pocket (pointing toward a tail end of each mouse), and the incision was sutured. […]
In the experiment, a Vinno 6LAB high-resolution ultrasonic detector for small animals was used for detection in a two-dimensional (2D) parasternal short-axis M mode. […] Each indicator was detected for 3-6 cardiac cycles, and a mean value of the measured cardiac cycles was calculated.

Assay [2] has the same test system. In words: Transmission electron microscopy of mitochondria in mouse heart tissue. It counts as in vivo. The following applies: 10 mg/kg/d intraperitoneal, 4 weeks, TEM, FIG. 24. As for the experimental part: as §1
(§2) Administration method: Intraperitoneal injection was adopted at a drug dose of 10 mg/kg/d, drugs were dissolved in a phosphate buffer solution (PBS) and administered twice a day in the morning and the evening, and a placebo group was given a phosphate buffer solution (PBS) of a same volume.
After mice were sacrificed, a small portion of left ventricular tissues were taken, and cardiac muscles were trimmed to achieve cubes with a size of 1 mm^3. According to arrangement directions of mitochondria in the cardiac muscle tissues, tissues were selected respectively along long axes and short axes of hearts, and samples for transmission electron microscopy were prepared subsequently. […]

For assay [3] the test system is unchanged. In words: Heart weight/body weight of Ang II mice. It is filed as in vivo, mouse. The following applies: 10 mg/kg/d intraperitoneal, 4 weeks, FIG. 23. On the procedure: as §1, §2
After continuous feeding, modeling and administration for 4 weeks, indicators, such as body weight, of mice were measured before sampling, then the mice were deeply anesthetized with isoflurane, and the mice were sacrificed after completely losing the sense of pain. Hearts were obtained after the mice were sacrificed, and indicators, such as heart weight, were measured.
In histological analysis, the hearts of the mice were collected, cut along maximum cross sections, and fixed with 4% paraformaldehyde. Subsequently, paraffin embedding, sectioning and hematoxylin-eosin (HE) staining of the maximum cross sections were performed. […] The sections were scanned by a scanner (3DHISTECH), and obtained and measured through software slideviewer.

Consider `CC(C)(C)C(=O)OC[C@H]1NC[C@H](O)[C@@H](O)[C@@H]1O` [DNJ-5a, ((2R,3R,4R,5S)-3,4,5-trihydroxypiperidin-2-yl)methyl pivalate], for which the “cardiac ultrasonography parameters (EF, FS, LVPWd, LVPWs)” value in assay [1] was “better performance”. Also, the “mitochondrial ultrastructure of heart tissue (crista, vacuolation proportion)” value in assay [2] was “more significantly improve the ultrastructure of the mitochondrial crista and decrease a vacuolation proportion”. Besides, in assay [3], the heart weight/body weight entry is “better performance”.
